Assay results from PubChem BioAssay (NCI).
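GI50 = concentration required for 50% inhibition of growth. At the TGI there is no net growth.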

How the values were obtained:
Experiment in all cases: inhibition of tumour cell growth, NCI panel, 384-well format
786-0 renal = tested on: 786-0 renal
A498 renal = tested on: A498 renal
A549 NSCLC = tested on: A549 NSCLC
ACHN renal = tested on: ACHN renal
BT-549 breast = tested on: BT-549 breast
CAKI-1 renal = tested on: CAKI-1 renal
CCRF-CEM leukemia = tested on: CCRF-CEM leukemia
COLO 205 colon = tested on: COLO 205 colon
DU-145 prostate = tested on: DU-145 prostate
HCC-2998 colon = tested on: HCC-2998 colon
HCT-116 colon = tested on: HCT-116 colon
HCT-15 colon = tested on: HCT-15 colon
HL-60(TB) leukemia = tested on: HL-60(TB) leukemia
HOP-62 NSCLC = tested on: HOP-62 NSCLC
HOP-92 NSCLC = tested on: HOP-92 NSCLC
HT29 colon = tested on: HT29 colon
IGROV1 ovarian = tested on: IGROV1 ovarian
K-562 leukemia = tested on: K-562 leukemia
KM12 colon = tested on: KM12 colon
LOX IMVI melanoma = tested on: LOX IMVI melanoma
M14 melanoma = tested on: M14 melanoma
MALME-3M melanoma = tested on: MALME-3M melanoma
MCF7 breast = tested on: MCF7 breast
MDA-MB-231 breast = tested on: MDA-MB-231 breast
MDA-MB-435 melanoma = tested on: MDA-MB-435 melanoma
MDA-MB-468 breast = tested on: MDA-MB-468 breast
MOLT-4 leukemia = tested on: MOLT-4 leukemia
NCI-H226 lung = tested on: NCI-H226 lung
NCI-H23 lung = tested on: NCI-H23 lung
NCI-H322M lung = tested on: NCI-H322M lung
NCI-H460 NSCLC = tested on: NCI-H460 NSCLC
NCI-H522 lung = tested on: NCI-H522 lung
NCI/ADR-RES ovarian = tested on: NCI/ADR-RES ovarian
OVCAR-3 ovarian = tested on: OVCAR-3 ovarian
OVCAR-4 ovarian = tested on: OVCAR-4 ovarian
OVCAR-5 ovarian = tested on: OVCAR-5 ovarian
OVCAR-8 ovarian = tested on: OVCAR-8 ovarian
PC-3 prostate = tested on: PC-3 prostate
RPMI-8226 leukemia = tested on: RPMI-8226 leukemia
RXF 393 renal = tested on: RXF 393 renal
SF-268 CNS = tested on: SF-268 CNS
SF-295 CNS = tested on: SF-295 CNS
SF-539 CNS = tested on: SF-539 CNS
SK-MEL-2 melanoma = tested on: SK-MEL-2 melanoma
SK-MEL-28 melanoma = tested on: SK-MEL-28 melanoma
SK-MEL-5 melanoma = tested on: SK-MEL-5 melanoma
SK-OV-3 ovarian = tested on: SK-OV-3 ovarian
SN12C renal = tested on: SN12C renal
SNB-19 CNS = tested on: SNB-19 CNS
SR leukemia = tested on: SR leukemia
SW-620 colon = tested on: SW-620 colon
T-47D breast = tested on: T-47D breast
TK-10 renal = tested on: TK-10 renal
U251 glioblastoma = tested on: U251 glioblastoma
UACC-257 melanoma = tested on: UACC-257 melanoma
UACC-62 melanoma = tested on: UACC-62 melanoma
UO-31 renal = tested on: UO-31 renal

CN(C)CC[C@H](CSc1ccccc1)Nc1ccc(S(=O)(=O)NC(=O)c2ccc(N3CCN(Cc4ccccc4-c4ccc(Cl)cc4)CC3)cc2)cc1[N+](=O)[O-]
GI50 ([…]-0 renal): 1940 nM | TGI (786-0 renal): 4.74 µM | GI50 (A498 renal): 1420 nM | TGI (A498 renal): 2980 nM | GI50 (A549 NSCLC): 3.14 µM | TGI (A549 NSCLC): 53.2 µM | GI50 (ACHN renal): 5.2 µM | TGI (ACHN renal): 62.8 µM | GI50 (BT-549 breast): 2230 nM | TGI (BT-549 breast): 6.13 µM | GI50 (CAKI-1 renal): 1830 nM | TGI (CAKI-1 renal): 3.73 µM | GI50 (CCRF-CEM leukemia): 145 nM | TGI (CCRF-CEM leukemia): 372 nM | GI50 (COLO 205 colon): 1680 nM | TGI (COLO 205 colon): 3.12 µM | GI50 (DU-145 prostate): 4.2 µM | TGI (DU-145 prostate): > 100 µM | GI50 (HCC-2998 colon): 232 nM | TGI (HCC-2998 colon): 750 nM | GI50 (HCT-116 colon): 1950 nM | TGI (HCT-116 colon): 4.07 µM | GI50 (HCT-15 colon): 1680 nM | TGI (HCT-15 colon): 3.17 µM | GI50 (HL-60(TB) leukemia): 47.7 nM | TGI (HL-60(TB) leukemia): 218 nM | GI50 (HOP-62 NSCLC): 3.18 µM | TGI (HOP-62 NSCLC): 25.4 µM | GI50 (HOP-92 NSCLC): 177 nM | TGI (HOP-92 NSCLC): 1050 nM | GI50 (HT29 colon): 2900 nM | TGI (HT29 colon): 13.3 µM | GI50 (IGROV1 ovarian): 1480 nM | TGI (IGROV1 ovarian): 3.59 µM | GI50 (K-562 leukemia): 2170 nM | TGI (K-562 leukemia): 5.21 µM | GI50 (KM12 colon): 2050 nM | TGI (KM12 colon): 6.17 µM | GI50 (LOX IMVI melanoma): 2360 nM | TGI (LOX IMVI melanoma): 4.73 µM | GI50 (M14 melanoma): 2790 nM | TGI (M14 melanoma): 8.57 µM | GI50 (MALME-3M melanoma): 3.15 µM | TGI (MALME-3M melanoma): 11.2 µM | GI50 (MCF7 breast): 1870 nM | TGI (MCF7 breast): 4.93 µM | GI50 (MDA-MB-231 breast): 1040 nM | TGI (MDA-MB-231 breast): 2390 nM | GI50 (MDA-MB-435 melanoma): 2330 nM | TGI (MDA-MB-435 melanoma): 6.07 µM | GI50 (MDA-MB-468 breast): 1330 nM | TGI (MDA-MB-468 breast): 3.42 µM | GI50 (MOLT-4 leukemia): 119 nM | TGI (MOLT-4 leukemia): 252 nM | GI50 (NCI-H226 lung): 1660 nM | TGI (NCI-H226 lung): 3.86 µM | GI50 (NCI-H23 lung): 2370 nM | TGI (NCI-H23 lung): 7.46 µM | GI50 (NCI-H322M lung): 2340 nM | TGI (NCI-H322M lung): 5.7 µM | GI50 (NCI-H460 NSCLC): 3.65 µM | TGI (NCI-H460 NSCLC): 14.3 µM | GI50 (NCI-H522 lung): 4.36 µM | TGI (NCI-H522 lung): 60.7 µM | GI50 (NCI/ADR-RES ovarian): > 100 µM | TGI (NCI/ADR-RES ovarian): > 100 µM | GI50 (OVCAR-3 ovarian): 1630 nM | TGI (OVCAR-3 ovarian): 3.37 µM | GI50 (OVCAR-4 ovarian): 3 µM | TGI (OVCAR-4 ovarian): 9.08 µM | GI50 (OVCAR-5 ovarian): 2010 nM | TGI (OVCAR-5 ovarian): 4.19 µM | GI50 (OVCAR-8 ovarian): 2290 nM | TGI (OVCAR-8 ovarian): 6.24 µM | GI50 (PC-3 prostate): 1780 nM | TGI (PC-3 prostate): 3.48 µM | GI50 (RPMI-8226 leukemia): 239 nM | TGI (RPMI-8226 leukemia): 444 nM | GI50 (RXF 393 renal): 258 nM | TGI (RXF 393 renal): 1400 nM | GI50 (SF-268 CNS): 3.17 µM | TGI (SF-268 CNS): > 100 µM | GI50 (SF-295 CNS): 2460 nM | TGI (SF-295 CNS): 6.83 µM | GI50 (SF-539 CNS): 5.46 µM | TGI (SF-539 CNS): 100 µM | GI50 (SK-MEL-2 melanoma): 1640 nM | TGI (SK-MEL-2 melanoma): 3.64 µM | GI50 (SK-MEL-28 melanoma): 2770 nM | TGI (SK-MEL-28 melanoma): 6.76 µM | GI50 (SK-MEL-5 melanoma): 1300 nM | TGI (SK-MEL-5 melanoma): 2640 nM | GI50 (SK-OV-3 ovarian): 2310 nM | TGI (SK-OV-3 ovarian): 6.3 µM | GI50 (SN12C renal): 2260 nM | TGI (SN12C renal): 5.79 µM | GI50 (SNB-19 CNS): 3.11 µM | TGI (SNB-19 CNS): > 100 µM | GI50 (SR leukemia): 223 nM | TGI (SR leukemia): 1480 nM | GI50 (SW-620 colon): 3.52 µM | TGI (SW-620 colon): 12.2 µM | GI50 (T-47D breast): 2410 nM | TGI (T-47D breast): 9.13 µM | GI50 (TK-10 renal): 1980 nM | TGI (TK-10 renal): 4.79 µM | GI50 (U251 glioblastoma): 2560 nM | TGI (U251 glioblastoma): 7.35 µM | GI50 (UACC-257 melanoma): 1490 nM | TGI (UACC-257 melanoma): 3.71 µM | GI50 (UACC-62 melanoma): 3.02 µM | TGI (UACC-62 melanoma): 10.5 µM | GI50 (UO-31 renal): 1790 nM | TGI (UO-31 renal): 3.58 µM
